Test results reported in PMC5848512, “The Penicillium chrysogenum transporter PcAraT enables high-affinity, glucose-insensitive L-arabinose transport in Saccharomyces cerevisiae” (Biotechnology for Biofuels, 2018).

Experiments:
Gal2 = target: T1, Gal2 (Saccharomyces cerevisiae, UniProt P13181); experiment: inhibition of […]-L-arabinose uptake in transporter-deleted yeast cells; format: cell-based
T1 construct: full-length, pRS313-GAL2 (HXT7 promoter) in S. cerevisiae DS68625 (hxt1-7, gal2 deleted)
T1 sequence (P13181 1-574): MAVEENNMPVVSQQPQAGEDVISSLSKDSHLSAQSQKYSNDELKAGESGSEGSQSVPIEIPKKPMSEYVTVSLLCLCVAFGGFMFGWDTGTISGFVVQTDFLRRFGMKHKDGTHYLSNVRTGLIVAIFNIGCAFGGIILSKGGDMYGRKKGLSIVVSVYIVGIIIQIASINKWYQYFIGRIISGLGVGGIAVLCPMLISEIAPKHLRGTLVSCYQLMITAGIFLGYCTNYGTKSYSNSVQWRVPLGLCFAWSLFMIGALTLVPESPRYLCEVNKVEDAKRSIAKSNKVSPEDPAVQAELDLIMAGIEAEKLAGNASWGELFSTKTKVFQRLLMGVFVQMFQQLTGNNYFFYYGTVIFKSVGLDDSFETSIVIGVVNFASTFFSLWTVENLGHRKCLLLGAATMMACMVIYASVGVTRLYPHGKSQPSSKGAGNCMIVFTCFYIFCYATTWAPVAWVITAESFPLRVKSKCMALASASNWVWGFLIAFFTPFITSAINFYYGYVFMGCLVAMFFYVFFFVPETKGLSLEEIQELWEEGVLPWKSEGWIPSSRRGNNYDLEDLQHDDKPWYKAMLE

PcAraT = target: T2, PcAraT (Penicillium rubens, UniProt B6HE12); experiment: as above; format: cell-based
T2 construct: gene Pc20g01790; full-length ORF, codon-pair optimized synthetic gene, pRS313-PcaraT (HXT7 promoter) in S. cerevisiae DS68625 (hxt1-7, gal2 deleted)
T2 sequence (B6HE12 1-511): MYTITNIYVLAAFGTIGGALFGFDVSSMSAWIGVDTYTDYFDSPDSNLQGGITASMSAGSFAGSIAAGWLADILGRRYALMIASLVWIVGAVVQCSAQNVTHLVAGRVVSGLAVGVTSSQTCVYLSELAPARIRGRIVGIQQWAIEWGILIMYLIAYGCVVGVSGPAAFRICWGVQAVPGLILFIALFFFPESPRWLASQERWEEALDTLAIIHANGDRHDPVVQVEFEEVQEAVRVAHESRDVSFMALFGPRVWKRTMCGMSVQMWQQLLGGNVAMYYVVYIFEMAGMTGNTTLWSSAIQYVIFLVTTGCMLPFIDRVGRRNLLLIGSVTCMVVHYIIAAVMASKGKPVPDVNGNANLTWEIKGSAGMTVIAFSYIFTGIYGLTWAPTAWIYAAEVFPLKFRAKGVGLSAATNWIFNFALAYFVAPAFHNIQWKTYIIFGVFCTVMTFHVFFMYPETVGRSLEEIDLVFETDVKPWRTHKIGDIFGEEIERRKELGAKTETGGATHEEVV

| SMILES | inhibition at 100000 µM (Gal2) [%] | inhibition at 100000 µM (PcAraT) [%] |
| --- | --- | --- |
| OC[C@H]1OC(O)[C@H](O)[C@@H](O)[C@@H]1O (stereo partly drawn) [D-glucose] | 85 | 63 |
| OC1OC[C@@H](O)[C@H](O)[C@H]1O (stereo partly drawn) [D-xylose] | 29 | 22 |
